Data reported in patent US8449898B2 (priority 2007, dated 2013).
Where two headings read alike, the source gives them in different places.

Columns and labels:
[1] = system: Phytophthora infestans (the causal agent of tomato late blight); assay: whole plant or invertebrate; type: in vivo; settings: Phytophthora infestans
[2] = system: Pseudoperonospora cubensis (the causal agent of cucumber downy mildew); assay: Test B: cucumber downy mildew, preventive spray on cucumber seedlings; type: in vivo; settings: Pseudoperonospora cubensis

## Cc1cc(C(F)(F)F)nn1CC(=O)N1CCC(c2nc(C3=NOC(c4ccccc4)C3)cs2)CC1 (centres unmarked) [Compound 1, 4-[4-[4,5-dihydro-5-phenyl-3-isoxazolyl]-2-thiazolyl]-1-[[5-methyl-3-(trifluoromethyl)-1H-pyrazol-1-yl]acetyl]piperidine]
[1]; read-out: TLB Obsd (disease control rating), Table A, Compound 1 alone 0.05 ppm
  pest or weed control at 0.05 ppm: 34%
[1]; read-out: TLB Obsd (disease control rating), Table A, Compound 1 alone 0.1 ppm
  pest or weed control at 0.1 ppm: 78%
[1]; read-out: TLB Obsd (disease control rating), Table A, Compound 1 alone 0.15 ppm
  pest or weed control at 0.15 ppm: 97%
[1]; read-out: TLB Obsd (disease control rating), Table A, Compound 1 alone 0.2 ppm
  pest or weed control at 0.2 ppm: 94%
[1]; read-out: TLB Obsd (disease control rating), Table A, Compound 1 alone 1 ppm
  pest or weed control at 1 ppm: 100%
[1]; read-out: TLB Obsd (disease control rating), Table B, Compound 1 alone 0.05 ppm
  pest or weed control at 0.05 ppm: 26%
[1]; read-out: TLB Obsd (disease control rating), Table B, Compound 1 alone 0.1 ppm
  pest or weed control at 0.1 ppm: 53%
[1]; read-out: TLB Obsd (disease control rating), Table B, Compound 1 alone 0.15 ppm
  pest or weed control at 0.15 ppm: 59%
[1]; read-out: TLB Obsd (disease control rating), Table B, Compound 1 alone 0.2 ppm
  pest or weed control at 0.2 ppm: 56%
[1]; read-out: TLB Obsd (disease control rating), Table B, Compound 1 alone 1 ppm
  pest or weed control at 1 ppm: 100%
[1]; read-out: TLB Obsd (disease control rating), Table C, Compound 1 alone 0.05 ppm
  pest or weed control at 0.05 ppm: 17%
[1]; read-out: TLB Obsd (disease control rating), Table C, Compound 1 alone 0.1 ppm
  pest or weed control at 0.1 ppm: 17%
[1]; read-out: TLB Obsd (disease control rating), Table C, Compound 1 alone 0.15 ppm
  pest or weed control at 0.15 ppm: 57%
[1]; read-out: TLB Obsd (disease control rating), Table C, Compound 1 alone 0.2 ppm
  pest or weed control at 0.2 ppm: 51%
[1]; read-out: TLB Obsd (disease control rating), Table C, Compound 1 alone 1 ppm
  pest or weed control at 1 ppm: 99%
[1]; read-out: TLB Obsd, Table D, Compound 1 alone at 0.05 ppm
  pest or weed control at 0.05 ppm: 32%
[1]; read-out: TLB Obsd, Table D, Compound 1 alone at 0.1 ppm
  pest or weed control at 0.1 ppm: 52%
[1]; read-out: TLB Obsd, Table D, Compound 1 alone at 0.15 ppm
  pest or weed control at 0.15 ppm: 90%
[1]; read-out: TLB Obsd, Table D, Compound 1 alone at 0.2 ppm
  pest or weed control at 0.2 ppm: 67%
[1]; read-out: TLB Obsd, Table D, Compound 1 alone at 1 ppm
  pest or weed control at 1 ppm: 100%
[1]; read-out: TLB Obsd, Table E, Compound 1 alone at 0.05 ppm
  pest or weed control at 0.05 ppm: 33%
[1]; read-out: TLB Obsd, Table E, Compound 1 alone at 0.1 ppm
  pest or weed control at 0.1 ppm: 75%
[1]; read-out: TLB Obsd, Table E, Compound 1 alone at 0.15 ppm
  pest or weed control at 0.15 ppm: 92%
[1]; read-out: TLB Obsd, Table E, Compound 1 alone at 0.2 ppm
  pest or weed control at 0.2 ppm: 90%
[1]; read-out: TLB Obsd, Table E, Compound 1 alone at 1 ppm
  pest or weed control at 1 ppm: 100%
[2]; Compound 1 alone 0.025 ppm, Table H evaluation set, rating 100 = 100% disease control, read-out: CDM Obsd
  pest or weed control at 0.025 ppm: 33%
[2]; Compound 1 alone 0.025 ppm, Table I evaluation set, read-out: CDM Obsd
  pest or weed control at 0.025 ppm: 47%
[2]; Compound 1 alone 0.025 ppm, Table J evaluation set, read-out: CDM Obsd
  pest or weed control at 0.025 ppm: 47%
[2]; Compound 1 alone 0.025 ppm, Table K evaluation set, read-out: CDM Obsd
  pest or weed control at 0.025 ppm: 76%
[2]; Compound 1 alone 0.025 ppm, Table L evaluation set, read-out: CDM Obsd
  pest or weed control at 0.025 ppm: 51%
[2]; Compound 1 alone 0.05 ppm, Table H evaluation set, read-out: CDM Obsd
  pest or weed control at 0.05 ppm: 40%
[2]; Compound 1 alone 0.05 ppm, Table I evaluation set, read-out: CDM Obsd
  pest or weed control at 0.05 ppm: 47%
[2]; Compound 1 alone 0.05 ppm, Table J evaluation set, read-out: CDM Obsd
  pest or weed control at 0.05 ppm: 47%
[2]; Compound 1 alone 0.05 ppm, Table K evaluation set, read-out: CDM Obsd
  pest or weed control at 0.05 ppm: 92%
[2]; Compound 1 alone 0.05 ppm, Table L evaluation set, read-out: CDM Obsd
  pest or weed control at 0.05 ppm: 51%
[2]; Compound 1 alone 0.075 ppm, Table H evaluation set, read-out: CDM Obsd
  pest or weed control at 0.075 ppm: 40%
[2]; Compound 1 alone 0.075 ppm, Table I evaluation set, read-out: CDM Obsd
  pest or weed control at 0.075 ppm: 47%
[2]; Compound 1 alone 0.075 ppm, Table J evaluation set, read-out: CDM Obsd
  pest or weed control at 0.075 ppm: 47%
[2]; Compound 1 alone 0.075 ppm, Table K evaluation set, read-out: CDM Obsd
  pest or weed control at 0.075 ppm: 89%
[2]; Compound 1 alone 0.075 ppm, Table L evaluation set, read-out: CDM Obsd
  pest or weed control at 0.075 ppm: 51%
[2]; Compound 1 alone 0.1 ppm, Table H evaluation set, read-out: CDM Obsd
  pest or weed control at 0.1 ppm: 76%
[2]; Compound 1 alone 0.1 ppm, Table I evaluation set, read-out: CDM Obsd
  pest or weed control at 0.1 ppm: 57%
[2]; Compound 1 alone 0.1 ppm, Table J evaluation set, read-out: CDM Obsd
  pest or weed control at 0.1 ppm: 47%
[2]; Compound 1 alone 0.1 ppm, Table K evaluation set, read-out: CDM Obsd
  pest or weed control at 0.1 ppm: 98%
[2]; Compound 1 alone 0.1 ppm, Table L evaluation set, read-out: CDM Obsd
  pest or weed control at 0.1 ppm: 98%
[2]; Compound 1 alone 0.125 ppm, Table H evaluation set, read-out: CDM Obsd
  pest or weed control at 0.125 ppm: 81%
[2]; Compound 1 alone 0.125 ppm, Table I evaluation set, read-out: CDM Obsd
  pest or weed control at 0.125 ppm: 57%
[2]; Compound 1 alone 0.125 ppm, Table J evaluation set, read-out: CDM Obsd
  pest or weed control at 0.125 ppm: 47%
[2]; Compound 1 alone 0.125 ppm, Table K evaluation set, read-out: CDM Obsd
  pest or weed control at 0.125 ppm: 99%
[2]; Compound 1 alone 0.125 ppm, Table L evaluation set, read-out: CDM Obsd
  pest or weed control at 0.125 ppm: 81%
[2]; Table A, Compound 1 alone 0.05 ppm, read-out: CDM Obsd (disease control rating)
  pest or weed control at 0.05 ppm: 88%
[2]; Table A, Compound 1 alone 0.1 ppm, read-out: CDM Obsd (disease control rating)
  pest or weed control at 0.1 ppm: 95%
[2]; Table A, Compound 1 alone 0.15 ppm, read-out: CDM Obsd (disease control rating)
  pest or weed control at 0.15 ppm: 100%
[2]; Table A, Compound 1 alone 0.2 ppm, read-out: CDM Obsd (disease control rating)
  pest or weed control at 0.2 ppm: 100%
[2]; Table A, Compound 1 alone 1 ppm, read-out: CDM Obsd (disease control rating)
  pest or weed control at 1 ppm: 100%
[2]; Table B, Compound 1 alone 0.05 ppm, read-out: CDM Obsd (disease control rating)
  pest or weed control at 0.05 ppm: 64%
[2]; Table B, Compound 1 alone 0.1 ppm, read-out: CDM Obsd (disease control rating)
  pest or weed control at 0.1 ppm: 86%
[2]; Table B, Compound 1 alone 0.15 ppm, read-out: CDM Obsd (disease control rating)
  pest or weed control at 0.15 ppm: 85%
[2]; Table B, Compound 1 alone 0.2 ppm, read-out: CDM Obsd (disease control rating)
  pest or weed control at 0.2 ppm: 92%
[2]; Table B, Compound 1 alone 1 ppm, read-out: CDM Obsd (disease control rating)
  pest or weed control at 1 ppm: 100%
[2]; Table C, Compound 1 alone 0.05 ppm, read-out: CDM Obsd (disease control rating)
  pest or weed control at 0.05 ppm: 77%
[2]; Table C, Compound 1 alone 0.1 ppm, read-out: CDM Obsd (disease control rating)
  pest or weed control at 0.1 ppm: 86%
[2]; Table C, Compound 1 alone 0.15 ppm, read-out: CDM Obsd (disease control rating)
  pest or weed control at 0.15 ppm: 95%
[2]; Table C, Compound 1 alone 0.2 ppm, read-out: CDM Obsd (disease control rating)
  pest or weed control at 0.2 ppm: 100%
[2]; Table C, Compound 1 alone 1 ppm, read-out: CDM Obsd (disease control rating)
  pest or weed control at 1 ppm: 100%
[2]; Table D, Compound 1 alone at 0.05 ppm, read-out: CDM Obsd
  pest or weed control at 0.05 ppm: 64%
[2]; Table D, Compound 1 alone at 0.1 ppm, read-out: CDM Obsd
  pest or weed control at 0.1 ppm: 77%
[2]; Table D, Compound 1 alone at 0.15 ppm, read-out: CDM Obsd
  pest or weed control at 0.15 ppm: 86%
[2]; Table D, Compound 1 alone at 0.2 ppm, read-out: CDM Obsd
  pest or weed control at 0.2 ppm: 93%
[2]; Table D, Compound 1 alone at 1 ppm, read-out: CDM Obsd
  pest or weed control at 1 ppm: 100%
[2]; Table F, Compound 1 alone at 0.025 ppm, read-out: CDM Obsd
  pest or weed control at 0.025 ppm: 40%
[2]; Table F, Compound 1 alone at 0.05 ppm, read-out: CDM Obsd
  pest or weed control at 0.05 ppm: 68%
[2]; Table F, Compound 1 alone at 0.075 ppm, read-out: CDM Obsd
  pest or weed control at 0.075 ppm: 39%
[2]; Table F, Compound 1 alone at 0.1 ppm, read-out: CDM Obsd
  pest or weed control at 0.1 ppm: 47%
[2]; Table F, Compound 1 alone at 0.125 ppm, read-out: CDM Obsd
  pest or weed control at 0.125 ppm: 58%
[2]; Table G, Compound 1 alone at 0.025 ppm, read-out: CDM Obsd
  pest or weed control at 0.025 ppm: 26%
[2]; Table G, Compound 1 alone at 0.05 ppm, read-out: CDM Obsd
  pest or weed control at 0.05 ppm: 26%
[2]; Table G, Compound 1 alone at 0.075 ppm, read-out: CDM Obsd
  pest or weed control at 0.075 ppm: 47%
[2]; Table G, Compound 1 alone at 0.1 ppm, read-out: CDM Obsd
  pest or weed control at 0.1 ppm: 47%
[2]; Table G, Compound 1 alone at 0.125 ppm, read-out: CDM Obsd
  pest or weed control at 0.125 ppm: 68%
